Measured values as given in paper PMC7618597, “Dual Nurr1/RXR agonism of valerenic acid and synthetic mimetics enables dimer-selective Nurr1 modulation” (ACS medicinal chemistry letters, 2025).

Molecular target: T1, Nurr1 homodimer (Homo sapiens, UniProt P43354)
T1 construct: Tb^3+-cryptate labeled and sGFP-labeled Nurr1 LBD proteins; FRET acceptor consisted of sGFP-Nurr1 LBD
Test: Nurr1 LBD homodimerization assay (HTRF)
Assay type: biochemical
Details: 30 μM, Tb3+-cryptate and sGFP labeled Nurr1 LBD
Experimental: To determine the molecular response of the Nurr1:RXR heterodimer on dual agonist binding, we employed homogenous time-resolved fluorescence resonance energy transfer (HTRF) based assays with labeled Nurr1 and RXR LBD proteins. Tb^3+-cryptate as streptavidin conjugate served as FRET donor and was coupled to biotinylated proteins. sGFP fusion proteins of the receptors of interest were used as FRET acceptors. Ligand effects on dimer formation were determined by titrating the sGFP-labeled dimer partner with a fixed concentration of the Tb^3+-labeled counterpart. […] The same effect was also observable for the natural product 1 (Figure S3).
Nurr1 dimerization assays (HTRF). Modulation of Nurr1 LBD homodimerization and heterodimerization of the LDBs of Nurr1 and RXRα was investigated by HTRF as reported previously4. Nurr1 LBD or RXRα LBD proteins labeled with sGFP were titrated against a fixed concentration of Tb3+-cryptate as streptavidin conjugate (Tb-SA) (610SATLF, Revvity) coupled to biotinylated Nurr1 LBD protein in the presence of test compounds at 30 µM or absence of compound as a negative control (apo). Assay solutions were prepared in buffer containing 25 mM HEPES pH 7.5, 150 mM KF, 5% (m/v) glycerol, 5 mM DTT, 0.1% (m/v) CHAPS and 1%
DMSO. The FRET donor complex was formed from biotinylated Nurr1 LBD (final concentration 0.188 nM) and Tb-SA (0.375 nM) and was kept constant. For the homodimerization assay, the FRET acceptor consisted of sGFP-Nurr1 LBD, which was titrated from 0.5 µM, while free sGFP was added to keep the total GFP content stable at 0.5 µM. […] Samples were equilibrated at room temperature for 2 h and fluorescence intensities (FI) after excitation at 340 nm were recorded at 520 nm for sGFP acceptor fluorescence and at 620 for Tb-SA donor fluorescence on a SPARK plate reader (Tecan Group Ltd.). […]
Evaluation of Nurr1-regulated gene expression. […] RNA concentration and purity were assessed using a NanoDrop One UV-vis spectrophotometer (Thermo Fisher Scientific) at 260/280 nm. […]

T1 sequence (P43354 360-595 limits assumed): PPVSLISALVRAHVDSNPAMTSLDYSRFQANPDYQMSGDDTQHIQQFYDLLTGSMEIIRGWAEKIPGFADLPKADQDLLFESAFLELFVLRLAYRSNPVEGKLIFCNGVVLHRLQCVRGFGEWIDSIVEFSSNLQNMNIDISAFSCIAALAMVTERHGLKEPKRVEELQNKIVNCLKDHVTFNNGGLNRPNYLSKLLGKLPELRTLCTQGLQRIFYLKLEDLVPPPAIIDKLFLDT

Compound: Cc1c2c(n(-c3ccc(CC(=O)O)cc3)c1C)CCC(F)(F)C2 [compound 2]
- Nurr1 homodimer formation: markedly diminished

Compound: Cc1c(C)n(-c2ccc(CC(=O)O)cc2)c2ccc(F)cc12 [compound 3]
- Nurr1 homodimer formation: markedly diminished
